{"source": "paper PMC9372421", "about": "(Clinical and Translational Science, 2022)", "key": {"[1]": {"molecular_target": "T1, human NaV1.5 sodium channel (Homo sapiens, UniProt Q14524)", "T1 sequence (Q14524 whole entry)": "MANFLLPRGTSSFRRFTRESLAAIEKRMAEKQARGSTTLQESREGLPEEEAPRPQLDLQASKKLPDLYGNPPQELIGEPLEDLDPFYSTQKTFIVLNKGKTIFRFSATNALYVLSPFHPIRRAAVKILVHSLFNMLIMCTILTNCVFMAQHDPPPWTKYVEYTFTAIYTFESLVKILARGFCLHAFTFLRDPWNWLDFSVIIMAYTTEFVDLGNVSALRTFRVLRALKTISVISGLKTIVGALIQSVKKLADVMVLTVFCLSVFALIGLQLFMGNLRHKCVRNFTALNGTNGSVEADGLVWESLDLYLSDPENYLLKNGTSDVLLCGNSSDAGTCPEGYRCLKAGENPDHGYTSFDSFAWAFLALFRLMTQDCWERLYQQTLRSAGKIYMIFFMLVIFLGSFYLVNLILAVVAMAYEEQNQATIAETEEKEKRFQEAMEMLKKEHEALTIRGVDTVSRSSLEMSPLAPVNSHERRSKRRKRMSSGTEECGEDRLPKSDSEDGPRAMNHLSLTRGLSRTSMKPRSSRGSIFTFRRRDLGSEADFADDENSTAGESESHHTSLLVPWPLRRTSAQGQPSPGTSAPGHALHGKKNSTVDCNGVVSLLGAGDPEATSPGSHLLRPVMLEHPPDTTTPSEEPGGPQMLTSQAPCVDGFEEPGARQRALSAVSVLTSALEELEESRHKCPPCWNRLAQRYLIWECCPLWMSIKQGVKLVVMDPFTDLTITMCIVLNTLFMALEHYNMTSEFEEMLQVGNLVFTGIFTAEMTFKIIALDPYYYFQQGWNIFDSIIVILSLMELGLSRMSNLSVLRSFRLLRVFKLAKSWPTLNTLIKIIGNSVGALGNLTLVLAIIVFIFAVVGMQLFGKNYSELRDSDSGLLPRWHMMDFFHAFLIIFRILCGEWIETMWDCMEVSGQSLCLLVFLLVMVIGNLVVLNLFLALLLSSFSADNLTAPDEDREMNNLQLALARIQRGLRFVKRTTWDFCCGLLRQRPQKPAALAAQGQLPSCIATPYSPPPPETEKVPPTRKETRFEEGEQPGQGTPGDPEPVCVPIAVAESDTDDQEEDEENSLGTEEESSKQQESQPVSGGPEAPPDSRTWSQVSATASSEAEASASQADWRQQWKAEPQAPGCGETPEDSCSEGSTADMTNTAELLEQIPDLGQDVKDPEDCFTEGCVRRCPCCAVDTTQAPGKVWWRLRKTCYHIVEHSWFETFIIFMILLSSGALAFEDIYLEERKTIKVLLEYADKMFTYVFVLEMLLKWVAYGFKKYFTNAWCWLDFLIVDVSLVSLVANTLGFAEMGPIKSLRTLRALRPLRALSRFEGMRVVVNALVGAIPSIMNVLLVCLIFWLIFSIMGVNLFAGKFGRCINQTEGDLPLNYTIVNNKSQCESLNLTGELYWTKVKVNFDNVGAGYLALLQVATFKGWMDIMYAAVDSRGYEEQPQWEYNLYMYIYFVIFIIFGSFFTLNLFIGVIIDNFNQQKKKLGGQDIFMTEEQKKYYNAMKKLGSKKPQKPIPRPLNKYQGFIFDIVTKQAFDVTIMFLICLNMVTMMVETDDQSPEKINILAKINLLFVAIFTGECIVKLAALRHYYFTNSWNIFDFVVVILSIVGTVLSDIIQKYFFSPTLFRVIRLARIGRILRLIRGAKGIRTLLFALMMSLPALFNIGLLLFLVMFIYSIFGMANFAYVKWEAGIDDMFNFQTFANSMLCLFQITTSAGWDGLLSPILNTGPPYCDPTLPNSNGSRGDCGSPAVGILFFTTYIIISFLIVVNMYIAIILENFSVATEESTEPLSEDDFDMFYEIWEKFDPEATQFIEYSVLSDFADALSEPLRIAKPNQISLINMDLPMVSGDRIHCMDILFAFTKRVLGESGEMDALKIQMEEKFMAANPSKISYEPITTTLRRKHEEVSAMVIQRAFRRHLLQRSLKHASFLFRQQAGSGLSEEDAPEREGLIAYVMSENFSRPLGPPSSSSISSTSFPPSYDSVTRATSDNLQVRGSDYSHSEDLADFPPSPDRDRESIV", "assay": "cell-based", "settings": "IC50 block of peak NaV1.5 current, HEK293, mean ± SEM"}, "[2]": {"settings": "human, in vivo"}, "[3]": {"settings": "healthy subjects; cited from earlier work"}, "[4]": {"tested_on": "hERG potassium channel", "settings": "cited from earlier work"}, "[5]": {"molecular_target": "T1, human NaV1.5 sodium channel", "assay": "cell-based", "settings": "IC50 block of late NaV1.5 current, mean ± SEM"}, "[6]": {"molecular_target": "T1, human NaV1.5 sodium channel"}, "[7]": {"settings": "cited from earlier work"}, "[8]": {"tested_on": "canine purkinje fibers", "settings": "30 μM; historical nonclinical assessment, data not reported; cited from earlier work"}, "[9]": {"settings": "lamotrigine containing regimens vs. no ASMs, cited from earlier work"}, "[10]": {"molecular_target": "T1, human NaV1.5 sodium channel", "remark": "listed apart in the source"}, "[11]": {"settings": "human, in vivo", "remark": "listed apart in the source"}, "[12]": {"settings": "lamotrigine 15 μg/ml; cited from earlier work"}, "[13]": {"molecular_target": "T1, human NaV1.5 sodium channel", "remark": "listed apart in the source"}, "[14]": {"molecular_target": "T1, human NaV1.5 sodium channel", "format": "cell-based"}, "[15]": {"settings": "each drug at or near its IC50, lamotrigine 280 μM, mean ± SEM"}, "[16]": {"settings": "each drug at or near its IC50, lamotrigine 280 µM, V hold = −120 mV"}, "[17]": {"settings": "each drug at or near its IC50, V hold = −120 mV"}}, "note": "pIC50: −log10 of the molar value. Where “and” joins values, the source holds several entries; their conditions need not be identical. Equal entries are not always repeated. Where two headings read alike, the source gives them in different places."}
{"compound": "Nc1nnc(-c2cccc(Cl)c2Cl)c(N)n1", "note": "[lamotrigine, Lamotrigine]", "values": [{"measurement": "pIC50", "setting": "[1]; V hold = −95 mV, 0.1 Hz", "value": 4.54}, {"measurement": "pIC50", "setting": "[1]; V hold = −120 mV", "value": 3.55}, {"measurement": "safety reports relating to the circulatory system", "setting": "[2]", "value": 1483, "unit": "reports"}, {"measurement": "safety reports relating to the circulatory system, share of all reports", "setting": "[2]", "value": 0.021, "unit": "%"}, {"measurement": "QTc interval, QRS duration, or blood pressure", "setting": "[3]", "value": "no increase"}, {"measurement": "QTcF", "setting": "[3]", "value": "small reductions"}, {"measurement": "heart rate and mean PR interval", "setting": "[3]", "value": "small increases"}, {"measurement": "pIC50", "setting": "[4]", "value": 3.64}, {"measurement": "potency (IC50) to block the hERG potassium channel", "setting": "[4]", "value": 58.6, "unit": "µg/mL"}, {"measurement": "pIC50", "setting": "[5]; ramp epoch", "value": 4.92}, {"measurement": "pIC50", "setting": "[5]; −15 mV epoch", "value": 4.76}, {"measurement": "recovery from block, rate fold faster than quinidine", "setting": "[6]", "value": 1.4, "unit": "fold"}, {"measurement": "off-rate kinetics fold faster than flecainide", "setting": "[6]; high concentration of lamotrigine", "value": "> 86", "unit": "fold"}, {"measurement": "τoff slow component, fold faster than quinidine's slow time constant", "setting": "[6]; lamotrigine 25 μM", "value": 2.4, "unit": "fold"}, {"measurement": "τoff Percent Fast", "setting": "[6]; lamotrigine 25 µM, −120 mV", "value": 58.0, "unit": "%"}, {"measurement": "τoff Tau fast", "setting": "[6]; lamotrigine 25 µM, −120 mV", "value": "0.8 ± 0.1", "unit": "s"}, {"measurement": "τoff Tau slow", "setting": "[6]; lamotrigine 25 µM, −120 mV", "value": "15.6 ± 5.0", "unit": "s"}, {"measurement": "concentrations expected in over 95% of patients", "setting": "[7]", "value": "below 15 μg/ml"}, {"measurement": "highest values for peak concentrations reported in patients", "setting": "[7]", "value": "~ 20 μg/ml"}, {"measurement": "expected increase in PR interval (absolute values)", "setting": "at 15 μg/ml, healthy subjects, outlier included", "value": 18.15, "unit": "ms"}, {"measurement": "decrease in QRS interval (absolute values)", "setting": "at 15 μg/ml, outlier included", "value": 5.94, "unit": "ms"}, {"measurement": "expected PR prolongation relative to baseline", "setting": "at ~20 μg/ml, highest peak concentrations reported in patients", "value": 8.24, "unit": "ms"}, {"measurement": "increase in PR interval as change from baseline", "setting": "healthy subjects, outlier included", "value": "up to 6.18 ms"}, {"measurement": "mean PR interval", "setting": "human, in vivo", "value": 169, "unit": "ms"}, {"measurement": "slope in PR change from baseline per μg/ml of lamotrigine", "setting": "outlier included", "value": 0.412, "unit": "ms/µg/mL"}, {"measurement": "subjects with QRS interval >120 ms while on lamotrigine", "setting": "outlier included", "value": "None"}, {"measurement": "inhibition of action potential upstroke (dV/dt)", "setting": "[8]", "value": "< 10", "unit": "%"}, {"measurement": "SUDEP odds ratio (OR)", "setting": "[9]; 95% CI: 0.31–0.97", "value": 0.55}, {"measurement": "reduction in SUDEP risk", "setting": "[9]", "value": 45, "unit": "%"}, {"measurement": "Tonic block of NaV1.5, percent inhibition", "setting": "[10]; [15]", "value": "26.8 ± 1.4", "unit": "%"}, {"measurement": "Tonic block of NaV1.5, percent inhibition", "setting": "[10]; lamotrigine 25 μM, mean ± SEM", "value": "2.6 ± 2.1", "unit": "%"}, {"measurement": "free concentration", "setting": "[11]", "value": 6600, "unit": "ng/mL"}, {"measurement": "peak unbound concentration", "setting": "[11]", "value": "3.15 to 24.5", "unit": "µM"}, {"measurement": "percent of the maximum effect of flecainide", "setting": "[12]", "value": "~ 29%"}, {"measurement": "fold difference in potency at a depolarized potential", "setting": "[13]", "value": 10, "unit": "fold"}, {"measurement": "τon fast component, fold of mexiletine", "setting": "[14]", "value": "≤ 1.6", "unit": "fold"}, {"measurement": "τon Percent Fast", "setting": "[14]; [16]", "value": "> 92", "unit": "%"}, {"measurement": "% block at 200th pulse", "setting": "[14]; lamotrigine 25 µM, V hold = −120 mV", "value": "25.5 ± 1.5% and 26%"}, {"measurement": "τon fast component, fold faster than flecainide", "setting": "[14]; lamotrigine versus flecainide", "value": 8.4, "unit": "fold"}, {"measurement": "τon fast component, fold faster than quinidine", "setting": "[14]; lamotrigine versus quinidine", "value": 4.7, "unit": "fold"}]}
{"compound": "Cc1cccc(C)c1OCC(C)N", "note": "(centres unmarked) [mexiletine]", "values": [{"measurement": "τoff Percent Fast", "setting": "[6]", "value": 83.2, "unit": "%"}, {"measurement": "τoff Tau fast", "setting": "[6]", "value": "0.8 ± 0.03", "unit": "s"}, {"measurement": "Tonic block of NaV1.5, percent inhibition", "setting": "[10]; human", "value": "9.2 ± 1.5", "unit": "%"}, {"measurement": "τon Percent Fast", "setting": "[14]", "value": "92.9% and > 92%"}]}
{"compound": "C=C[C@H]1C[N@@]2CC[C@H]1C[C@@H]2[C@@H](O)c1ccnc2ccc(OC)cc12", "note": "[quinidine]", "values": [{"measurement": "τoff Tau slow", "setting": "[6]; each drug at or near its IC50, −120 mV", "value": "37.7 ± 5.9", "unit": "s"}, {"measurement": "Tonic block of NaV1.5, percent inhibition", "setting": "[10]; [15]", "value": "6.7 ± 1.2", "unit": "%"}, {"measurement": "τon contribution by the slow component of the exponential", "setting": "[14]; [17]", "value": 26.1, "unit": "%"}]}
{"compound": "O=C(NCC1CCCCN1)c1cc(OCC(F)(F)F)ccc1OCC(F)(F)F", "note": "(centres unmarked) [flecainide]", "values": [{"measurement": "Tonic block of NaV1.5, percent inhibition", "setting": "[10]; [15]", "value": "1.6 ± 1.2", "unit": "%"}, {"measurement": "τon contribution by the slow component of the exponential", "setting": "[14]; [17]", "value": 45.1, "unit": "%"}, {"measurement": "τon Percent Fast", "setting": "[14]; [16]", "value": 54.9, "unit": "%"}]}
